{"source": "patent US20240408183A1", "about": "“KYNURENINE AMINOTRANSFERASE AND PRODUCTS THEREOF FOR THE TREATMENT OF INFLAMMATORY BOWEL DISEASES” (Institut National De Recherche Pour L'Agriculture, …, priority 2021, published 2024)", "tested_on": "mice submitted to DSS-induced colitis", "test": "DSS-induced colitis model in mice", "format": "in vivo, mouse (C57BL/6JRj)", "details": "for protection against DSS-induced colitis (body weight loss, DAI, colon length, histological score): FIG. 2, oral administration, n=16-20 mice per group; for protection from colitis: intraperitoneal injection, FIG. 3, n=10 mice per group; for colonic expression of pro-inflammatory cytokines such as IL-1 or IL-17: oral treatment, measured by Nanostring technology, data not shown; for colon length / histological score: day twelve", "description": "C57BL/6JRj from Janvier lab, 7 weeks old, were housed in our specific pathogen free animal facility at IERP (INRA, Jouy en Josas, France). Five to ten female mice per group were used in all experiment, were maintained in a temperature controlled (23° C.) facility with a strict 12 h light/dark cycles and were given free access to food and water. After one acclimation week, we changed water with DSS 2% (MP Biomedical) during 7 days (day 0 to day 7), and a\nrecovery period was practiced until day 12 (during 5 days). Body weight loss and DAI (disease activity index) were performed daily. After 12 days the samples were harvested.\nColon distal part (cut in three parts) was harvested at day 12 after DSS model and put directly in PFA (Rothi®—Histofix 4%) during 48 h and transferred in ethanol 70% until the standard pre-fixation automat and paraffin embedded. HES coloration was practiced on 5Im cut.\nData were analyzed using Prism version 7 (Graphpad Software, San Diego, USA). The non-parametric Mann Withney test or the parametric one-way ANOVA tests with multiple Bonferroni's comparison tests were performed. Values are expressed as mean±SEM. Statistical significance was defined at a p-value ****<0.0001, ***<0.001, **<0.01, *<0.05.", "key": {"[1]": {"details": "oral, each day, 8 mg of KYNA / 6 mg of XANA per mouse"}, "[2]": {"details": "oral, each day, 8 mg of KYNA / 6 mg of XANA per mouse, measured daily, DSS 2%"}}}
{"molecule": "O=C(O)c1cc(=O)c2ccccc2[nH]1", "note": "[KYNA, kynurenic acid, reference compound]", "values": [{"measurement": "protection against DSS-induced colitis (body weight loss, DAI, colon length, histological score)", "value": "protect against DSS-induced colitis"}, {"measurement": "protection from colitis", "value": "induces protection similar to that observed when these metabolites are given orally"}, {"measurement": "colonic expression of pro-inflammatory cytokines such as IL-1 or IL-17", "value": "reduced"}, {"measurement": "colon length", "setting": "[1]", "value": "longer"}, {"measurement": "histological score", "setting": "[1]", "value": "lower"}, {"measurement": "activity index of colitis (DAI)", "setting": "[2]", "value": "anti-inflammatory effect"}, {"measurement": "weight loss", "setting": "[2]", "value": "anti-inflammatory effect"}]}
{"molecule": "O=C(O)c1cc(O)c2cccc(O)c2n1", "note": "[XANA, xanthurenic acid]", "values": [{"measurement": "protection against DSS-induced colitis (body weight loss, DAI, colon length, histological score)", "value": "protect against DSS-induced colitis"}, {"measurement": "protection from colitis", "value": "induces protection similar to that observed when these metabolites are given orally"}, {"measurement": "colonic expression of pro-inflammatory cytokines such as IL-1 or IL-17", "value": "reduced"}, {"measurement": "colon length", "setting": "[1]", "value": "longer"}, {"measurement": "histological score", "setting": "[1]", "value": "lower"}, {"measurement": "weight loss", "setting": "[2]", "value": "anti-inflammatory effect"}]}
